The series has as its system IPEC-J2 cells. Description: Cytotoxicity of DON degradation products, WST assay cell viability. In kind it is cell-based. The following applies: for Cell Viability (%): 24 hours. Here is the method: A DMEM/F-12 medium supplemented with 10% FBS and 1% penicillin-streptomycin was added to a T75 flask, and the IPEC-J2 cell line was subcultured in the flask at 37°C and under 5% CO2. For cytotoxicity evaluation, the cultured cells were seeded in 96-well plates containing DMEM/F-12 with 10% FBS to 3×10^4 cells/100 µL, and the cells were incubated for 24 hour under the above conditions. Thereafter, the existing medium was removed, and the three samples in Table 4 were each applied to the cells so as to final concentrations of 2 µM, 1 µM, and 0.5 µM (based on the substrate concentration before the reaction), followed by additional incubation at 37°C in a CO2 incubator for 24 hours. After incubation, the existing substances were removed, and the cells were washed once with DMEM/F-12 and treated with a WST assay reagent (EZ-Cytox kit, DoGenBio) together with the medium. After 2 hours, absorbance at 450 nm was measured to determine cell viability of IPEC-J2 cells.

For `CC1=C[C@H]2O[C@@H]3[C@H](O)C[C@](C)([C@@]2(CO)[C@H](O)C1=O)[C@]31CO1` [DON Control, deoxynivalenol], the cell viability result (IPEC-J2, 0.5 µM to 2 µM) is “approximately 65%”. The “Cell Viability (%)” value (IPEC-J2, sample concentration 0.5 µM (substrate concentration before the reaction)) is 79.0%; the “Cell Viability (%)” value (IPEC-J2, sample concentration 1 µM (substrate concentration before the reaction)) turned out to be 71.4%; the “Cell Viability (%)” value (IPEC-J2, sample concentration 2 µM (substrate concentration before the reaction)) was 64.6%.

Values taken from patent EP4700120A1, “NOVEL P[…] DON-DEGRADING ACTIVITY” (CJ Cheiljedang Corporation, priority 2023, dated 2024).
